The assay deals with total glutathione levels. The experiment in a line: Total glutathione in striatum and liver of rats after CHX depletion. In kind it is in vivo, Sprague-Dawley rats. The note with it: CHX 75 mg/kg i.p. The protocol: Male Sprague-Dawley rats aged nine weeks and weighing an average of 390 g, were used in the study. Animals were maintained on a twelve hour light-dark cycle with water and food ad libitum. Two animals were housed per cage with room temperature maintained at 22° C.
All pharmacological agents were administered by intraperitoneal injection (i.p.) in a volume of 1 ml/kg, except where otherwise stated. All agents were prepared using saline as a diluent. Brain GSH depletion was performed using cyclohexene-1-one (CHX), administered at 75 mg/kg. Animals were returned to their cage for 90 minutes prior to administration of N-acetyl cysteine (NAC) or N-acetyl cysteine amide (NACA or “AD4”). Animals were killed by decapitation 1 hour after NACA or NAC treatment.
Frontal cortex, striatum and liver samples were immediately excised on ice, weighed and sonicated in SSA buffer (5% sulfosalicylic acid in 100 mM disodium hydrogen orthophosphate, 100 mM sodium dihydrogen orthophosphate and 1 mM EDTA, pH 7.5, 5 mL/g wet tissue). The samples were subsequently centrifuged (22×10^3 g for 10 minutes, 4° C.) and the […] was taken and frozen at −80° C. until analysed.
Total glutathione levels (μmol GSH/gram tissue) were determined in all samples. Samples were assayed according to Baker et al. (1990). Reduced glutathione standards ranging from 0 to 320 ρmol of GSH in 50 μL were prepared in a background buffer identical to the samples (SSA buffer) and then treated in parallel with samples. 50 μl of sample or standard was placed on a 96-well microtiter plate with 100 μL of assay reagent (final concentration in well; 0.15 mM DTNB, 0.2 mM NADPH, 1.0 U glutathione reductase/mL). Plates were assayed for a total of 2 minutes at 414 nm using a Multiskan MCC/340 MK II plate reader and Genesis V3.05 computer software. All chemicals were purchased from Sigma-Aldrich. Statistical evaluation of the data was conducted using analysis of variance (ANOVA).

“Also recorded” adds a separate entry of the source.

For the compound `O=C1C=CCCC1` [CHX, cyclohexene-1-one], the “Total glutathione levels in the brain striatum” value was “significant decrease; also recorded: depleted” and the “Total glutathione levels in the liver” value is “significant decrease; also recorded: depleted”.

For the origin of these results see patent US20100099762A1, “COMBINATION THERAPY” (THE MENTAL HEALTH RESEARCH INSTITUTE OF VICTORIA, priority 2006, published 2010).
